Paper PMC7968374 (Bioorganic & medicinal chemistry, 2021)

Molecular target: Hsp27c (Homo sapiens, UniProt P04792)
Assay: STD-NMR binding experiment
Conditions: Figure S2

Hsp27c, sequence (P04792 79-176): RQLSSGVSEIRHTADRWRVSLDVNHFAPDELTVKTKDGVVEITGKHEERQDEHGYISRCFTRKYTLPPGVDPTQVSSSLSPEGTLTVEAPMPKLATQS

With `Nc1cccnc1Oc1ccc(F)cc1F` [Compound 4, 2-(2,4-difluorophenoxy)pyridin-3-amine] the “binding to Hsp27c in STD-NMR” value was “bound”.
